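All cell lines were grown in 96-well plates and treated with compound for 48 hours. Abbreviation: GI50, concentration required for 50% inhibition of growth. TGI denotes the concentration required for complete inhibition of growth.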
Tests used:
Test in all cases: NCI-60 cell line screen, 48 h
[1] = system: RXF-631 renal
[2] = system: DLD-1 colon
[3] = system: KM20L2 colon
[4] = system: SNB-78 CNS
[5] = system: HOP-18 NSCLC
[6] = system: BT-549 breast
[7] = system: MDA-N
[8] = system: MDA-MB-435
[9] = system: T-47D breast

SMILES | TGI [1] | TGI [2] | TGI [3] | TGI [4] | TGI [5] | also measured
O=C1NC2(CCCCC2)C2CCCCC(O)C12 (configuration not stated) | > 100 µM | > 100 µM | > 100 µM | > 100 µM | – | –
COc1cccc(NC(=O)CC(=O)n2nc(C)c(N=Nc3ccccc3)c2C)c1 | > 100 µM | > 100 µM | – | > 100 µM | 71.4 µM | –
Cc1nc2c(nc1C)C(=O)c1ccccc1C2=O | 46.1 µM | 47.9 µM | 36.3 µM | > 94.2 µM | 9.53 µM | TGI [6]: 3.15 µM; TGI [7]: 0.562 µM; TGI [8]: 0.365 µM; TGI [9]: 13.8 µM
COc1ccc(NC(=O)c2cc(OC)cc(OC)c2)cc1 | – | > 100 µM | 32 µM | 83.3 µM | > 100 µM | –
O[C@H]1[C@H]2c3cc4c(cc3CN3CCC(=C[C@@H]1O)[C@H]23)OCO4 | – | – | – | – | – | TGI [6]: 5.43 µM; TGI [7]: 26.7 µM; TGI [8]: 7.87 µM; TGI [9]: > 21.3 µM
CN(CC(=O)O)S(=O)(=O)c1ccc2ccccc2c1 | > 100 µM | > 100 µM | > 100 µM | – | > 100 µM | –
O=C1c2cccnc2-c2nc(-c3ccccc3[N+](=O)[O-])cc3c2c1nc1ccccc13 | – | – | – | – | – | GI50 [6]: 16.7 µM; TGI [6]: 73.2 µM; GI50 [7]: 12.2 µM; TGI [7]: 26.1 µM; GI50 [8]: 7.1 µM; TGI [8]: 22.2 µM; GI50 [9]: 5.3 µM; TGI [9]: > 100 µM
CC1(C)COC(c2ccc(C(F)(F)F)cc2C(O)c2ccc3ccccc3c2)=N1 (configuration not stated) | > 100 µM | > 10 µM | > 100 µM | > 100 µM | > 100 µM | GI50 [3]: > 100 µM; GI50 [4]: > 10 µM; GI50 [5]: > 100 µM
CCOC(=O)C1=C(C)CC2C(=O)OC(=O)C2C1(C)C (configuration not stated) | – | > 100 µM | – | – | > 100 µM | –
CC1=C(C(=O)Nc2ccccc2C)C(c2ccco2)C(C(=O)Nc2ccccc2C)=C(C)N1C | > 100 µM | > 100 µM | – | > 100 µM | > 100 µM | –
CCOC(=O)c1ncn2c1[nH]c(=S)c1ccccc12 | > 100 µM | > 100 µM | > 100 µM | – | > 100 µM | –
COc1ccc(/C=C\c2cc(OC)c3c(c2)OCO3)c(O)c1O | – | 23 µM | 61.5 µM | 16 µM | 46.4 µM | –
COc1ccccc1NC(=O)CC(=O)n1nc(C)c(N=Nc2ccccc2C(=O)O)c1C | – | > 100 µM | > 100 µM | > 100 µM | – | –
COc1ccc(-c2cc(=O)c3ccc(O)cc3o2)c(OC)c1OC | – | > 100 µM | > 100 µM | – | – | –
Cc1cc(=O)[nH]c2cc3oc4ccccc4c3cc12 | – | – | – | – | – | TGI [6]: > 100 µM; TGI [7]: > 100 µM; TGI [8]: > 100 µM; TGI [9]: > 100 µM
CC[C@@]12CCCN3CC[C@]4(c5cccc(OC)c5N(C(C)=O)[C@@H]4CC1)[C@H]32 | – | – | – | – | – | TGI [6]: > 100 µM; TGI [7]: > 100 µM; TGI [8]: > 100 µM; TGI [9]: > 100 µM
O=C(/C=C/c1ccccc1Cl)c1ccc(Cl)c(Cl)c1 | – | 30.1 µM | 31.1 µM | 32.7 µM | 32 µM | –
CC(=O)OC1COC(n2c(=S)n(-c3ccc(C)cc3)c(=O)c3ccccc32)C(OC(C)=O)C1OC(C)=O (configuration not stated) | > 100 µM | > 100 µM | > 100 µM | > 100 µM | > 100 µM | –
COc1ccc2nc3cc(Cl)ccc3c(Sc3ccccc3[N+](=O)[O-])c2c1 | > 100 µM | > 100 µM | > 100 µM | > 100 µM | > 100 µM | –
NS(=O)(=O)c1ccccc1C(=O)N/N=C(\c1nc2ccc([N+](=O)[O-])cc2[nH]c1=O)C(O)c1ccc([N+](=O)[O-])cc1 (configuration not stated) | – | > 100 µM | > 100 µM | – | > 100 µM | –
CC1=C(C(=O)Nc2ccc(F)c(Cl)c2)C(c2ccc(Cl)cc2)NC(=O)N1 (configuration not stated) | – | – | – | – | – | GI50 [6]: 14.6 µM; TGI [6]: 32.6 µM; GI50 [8]: 22.8 µM; TGI [8]: 56.4 µM; GI50 [9]: > 100 µM; TGI [9]: > 100 µM
CC1CN1P1(N2CC2C)=NP(N2CC2C)(N2CC2C)=NP(N2CC2C)(N2CC2C)=N1 (configuration not stated) | – | > 50 µM | > 50 µM | – | > 50 µM | –
O=C(O)C(Cc1ccccc1)N1C(=O)N/C(=C\c2ccc(F)cc2)C1=O (configuration not stated) | – | > 100 µM | – | > 100 µM | > 100 µM | –
O=c1n(CC2CO2)c(=O)n(CC2CO2)n1CC1CO1 (configuration not stated) | – | – | – | – | – | GI50 [6]: 27.8 µM; TGI [6]: > 100 µM; GI50 [8]: 34.7 µM; TGI [8]: > 100 µM; GI50 [9]: 6.64 µM; TGI [9]: > 100 µM
O=C1/C(=C/c2ccc([N+](=O)[O-])cc2)COc2ccc(O)c(O)c21 | – | – | – | – | – | GI50 [6]: 1.44 µM; TGI [6]: 3.19 µM; GI50 [8]: 1.58 µM; TGI [8]: 3.08 µM; GI50 [9]: 1.32 µM; TGI [9]: 3.65 µM
COc1ccc2c(c1)C1(C=N2)CCN(C(C)=O)CC1 | > 100 µM | > 100 µM | > 100 µM | > 100 µM | > 100 µM | –
NC(CCc1nc(-c2ccc(Cl)cc2)cs1)C(=O)O (configuration not stated) | > 100 µM | > 100 µM | > 100 µM | > 100 µM | > 100 µM | –
C=CCc1cc(OC)c2c(c1)C(O)CC(c1ccc(OC)c(OC)c1)O2 (configuration not stated) | – | > 100 µM | > 100 µM | > 100 µM | > 100 µM | –
